According to patent publication US5686628A, “Proline derivatives” (Zeneca Ltd., priority 1995, dated 1997):
Read-outs that look alike come from different tables or passages of the source. Values belong to the molecule of their own block, whether it stands above or below them. Where a SMILES comes first, the peptide text is derived from it. [ ]: non-standard residue; d: D form. The star is where a group is joined. ξ: configuration not given here. ξV = CC(C)C(N)C(=O)O; CF3 = FC(F)(F)*; Moc = COC(=O)*

Legend:
[1] = target: T1, human leukocyte elastase (HLE) (Homo sapiens, UniProt P08246); experiment: Inhibition of human leukocyte elastase (HLE) on low molecular weight peptide substrate methoxy-succinyl-alanyl-alanyl-prolyl-valine-p-nitroanilide; type: biochemical; conditions: kinetic determination, read-out: Ki (dissociation constant of the complex formed from the interaction of the inhibitor with HLE)
T1 sequence (P08246 30-267): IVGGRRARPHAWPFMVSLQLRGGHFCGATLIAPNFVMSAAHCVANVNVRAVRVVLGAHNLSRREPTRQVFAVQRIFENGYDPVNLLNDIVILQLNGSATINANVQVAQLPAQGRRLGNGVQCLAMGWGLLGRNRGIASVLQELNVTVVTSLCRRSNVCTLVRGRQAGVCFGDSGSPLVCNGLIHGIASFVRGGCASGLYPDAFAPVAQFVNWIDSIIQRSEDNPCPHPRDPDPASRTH
Experimental: The potency of the compound of the invention (or a particular form thereof) to act as an inhibitor of human leukocyte elastase (HLE) on the low molecular weight peptide substrate methoxy-succinyl-alanyl-alanyl-prolyl-valine-p-nitroanilide is determined as described in U.S. Pat. No. 4,910,190. The potency of the compound is evaluated by obtaining a kinetic determination of the dissociation constant, Ki, of the complex formed from the interaction of the inhibitor with HLE.

[2] = target: T2, human neutrophil elastase (HNE) (Homo sapiens, UniProt P08246); experiment: Acute Hemorrhagic Assay (HNE-induced lung hemorrhage in hamsters); type: in vivo, Male Syrian hamsters; conditions: hamster, 50 μg/animal HNE intratracheal, 4 h, read-out: ED50 (inhibition of HNE-induced hemorrhage)
T2 sequence (P08246 30-267): T1 sequence (P08246 30-267)
Experimental: This assay relies on monitoring only the amount of hemorrhage in the lung following intratracheal administration of human neutrophil elastase (HNE). Hemorrhage is quantified by disrupting erythrocytes recovered in lung lavage fluid and comparing that to dilutions of whole hamster blood. […] Male Syrian hamsters (fasted for 16-18 hours prior to use) are lightly anaesthetised with Brevital sodium (30 mg/kg i.p.). […] Four hours after enzyme administration, the animals are killed with an overdose of pentobarbital sodium, the thorax opened and the lungs and heart removed and the lungs cleared of extraneous material. The excised lungs are lavaged with three changes of 2 ml PBS via a tracheal cannula. The recovered lavages are pooled, the volumes (about 5 mL) are recorded and the lavages stored at 4 ° C. until assayed. For calculation of the amount of blood in each sample, the thawed lavages and a sample of whole hamster blood are sonicated to disrupt erythrocytes and appropriately diluted into individual wells of a 96-well microtiter plate. The optical densities (OD) of the disrupted lavages and blood samples are determined at 540 nm. The (μL blood equivalents) / (mL lavage) are determined by comparing the OD of the test samples with the OD of the standard curve prepared from whole hamster blood. The total μL equivalents of blood recovered is determined by multiplying recovered lavage volume by the (μL blood equivalents) / (mL lavage) for each sample.

Hygroscopicity = type: physicochemical
Bioavailability = type: in vivo; conditions: crystalline hydrated forms
[3] = Solubility in aqueous buffer; type: physicochemical; conditions: crystalline hydrated forms

- Ki [1]: 9 nM
- ED50 ([2]; iv, i.v. administration): 0.6 mg/kg
- ED50 ([2]; oral dosing): 1.9 mg/kg
- hygroscopicity (Hygroscopicity; listed as Form A): non-hygroscopic
- bioavailability (Bioavailability): good bioavailability
- solubility in aqueous buffer [3]: good solubility in aqueous buffer
SMILES: COC(=O)N[C@H](C(=O)N1CCC[C@H]1C(=O)N[C@H](C(=O)C(F)(F)F)C(C)C)C(C)C [Example 2, (S)-1-[(S)-2-(methoxycarbonylamino)-3-methylbutyryl]-N-[(S)-2-methyl-1-(2,2,2-trifluoroacetyl)propyl]-pyrrolidine-2-carboxamide] (HELM PEPTIDE1{[COC(=O)[*:2]].V.P.V.[FC(F)(F)[*:1]]}$$$$V2.0)

- Ki [1]: 36 nM
- ED50 ([2]; oral dosing): 4.5 mg/kg
SMILES: COC(=O)N[C@H](C(=O)N1CCC[C@H]1C(=O)NC(C(=O)C(F)(F)F)C(C)C)C(C)C (stereo partly drawn) [Example 1, (S)-1-[(S)-2-(methoxycarbonylamino)-3-methylbutyryl]-N-[2-methyl-1-(2,2,2-trifluoroacetyl)propyl]pyrrolidine-2-carboxamide] (Moc-Val-Pro-[ξV]-CF3)

- hygroscopicity (Hygroscopicity; listed as "ketone" form): hygroscopic
SMILES: COC(=O)N[C@H](C(=O)N1CCC[C@H]1C(=O)N[C@H](C(=O)C(F)(F)F)C(C)C)C(C)C [Example 10] (HELM PEPTIDE1{[COC(=O)[*:2]].V.P.V.[FC(F)(F)[*:1]]}$$$$V2.0)

- hygroscopicity (Hygroscopicity; listed as Form B): non-hygroscopic
SMILES: COC(=O)N[C@H](C(=O)N1CCC[C@H]1C(=O)N[C@H](C(=O)C(F)(F)F)C(C)C)C(C)C [Example 8] (HELM PEPTIDE1{[COC(=O)[*:2]].V.P.V.[FC(F)(F)[*:1]]}$$$$V2.0)
